Assays:
Oryza sativa = assay: Inhibition of rice Alpha-glucosidase using p-nitrophenyl glycoside as substrate assessed as p-nitrophenol release at 1000 uM by spectrometric analysis relative to control
Aspergillus niger = assay: Inhibition of Aspergillus niger amyloglucosidase using p-nitrophenyl glycoside as substrate assessed as release of p-nitrophenol at 1000 uM by spectrometric analysis relative to control
[1] = target: Alpha-galactosidase (Coffea arabica) (UniProt Q42656); assay: Inhibition of coffee bean alpha-galactosidase using p-nitrophenyl glycoside as substrate assessed as release of p-nitrophenol at 1000 uM by spectrometric analysis relative to control
Prunus dulcis = assay: Inhibition of almond Beta-glucosidase using p-nitrophenyl glycoside as substrate assessed as release of p-nitrophenol at 1000 uM by spectrometric analysis relative to control
Bos taurus [2] = species: Bos taurus; assay: Inhibition of bovine liver beta-glucuronidase using p-nitrophenyl glycoside as substrate assessed as release of p-nitrophenol at 1000 uM by spectrometric analysis relative to control
Escherichia coli = assay: Inhibition of Escherichia coli beta-glucuronidase using p-nitrophenyl glycoside as substrate assessed as release of p-nitrophenol at 1000 uM by spectrometric analysis relative to control
Rattus norvegicus = species: Rattus norvegicus; assay: Inhibition of rat intestinal Alpha-glucosidase using p-nitrophenyl glycoside as substrate assessed as p-nitrophenol release at 1000 uM by spectrometric analysis relative to control
Homo sapiens = species: Homo sapiens; assay: Inhibition of human lysosome beta-glucosidase using p-nitrophenyl glycoside as substrate assessed as release of p-nitrophenol at 1000 uM by spectrometric analysis relative to control
Helix pomatia = assay: Inhibition of snail beta-mannosidase using p-nitrophenyl glycoside as substrate assessed as release of p-nitrophenol at 1000 uM by spectrometric analysis relative to control
Penicillium decumbens = assay: Inhibition of Penicillium decumbens alpha-L-rhamnosidase using p-nitrophenyl glycoside as substrate assessed as release of p-nitrophenol at 1000 uM by spectrometric analysis relative to control
[3] = target: Alpha glucosidase (Homo sapiens) (UniProt O43451+P10253+P14410+Q2M2H8); assay: Inhibition of human Alpha-glucosidase using p-nitrophenyl glycoside as substrate assessed as p-nitrophenol release at 1000 uM by spectrometric analysis relative to control; assay type: protein assay
Bos taurus [4] = species: Bos taurus; assay: Inhibition of bovine liver beta-glucosidase using p-nitrophenyl glycoside as substrate assessed as release of p-nitrophenol at 1000 uM by spectrometric analysis relative to control
[5] = target: Alpha-glucosidase (Saccharomyces cerevisiae S288c) (UniProt P53341+P38158+P07265); assay: Inhibition of yeast Alpha-glucosidase using p-nitrophenyl glycoside as substrate assessed as p-nitrophenol release at 1000 uM by spectrometric analysis relative to control; assay type: protein assay
Bos taurus [6] = species: Bos taurus; assay: Inhibition of bovine liver beta-galactosidase using p-nitrophenyl glycoside as substrate assessed as release of p-nitrophenol at 1000 uM by spectrometric analysis relative to control
[7] = target: T1, Alpha-mannosidase (Canavalia ensiformis) (UniProt C0HJB3); assay: Inhibition of jack bean alpha-mannosidase using p-nitrophenyl glycoside as substrate assessed as release of p-nitrophenol at 1000 uM by spectrometric analysis relative to control
T1 sequence (whole entry): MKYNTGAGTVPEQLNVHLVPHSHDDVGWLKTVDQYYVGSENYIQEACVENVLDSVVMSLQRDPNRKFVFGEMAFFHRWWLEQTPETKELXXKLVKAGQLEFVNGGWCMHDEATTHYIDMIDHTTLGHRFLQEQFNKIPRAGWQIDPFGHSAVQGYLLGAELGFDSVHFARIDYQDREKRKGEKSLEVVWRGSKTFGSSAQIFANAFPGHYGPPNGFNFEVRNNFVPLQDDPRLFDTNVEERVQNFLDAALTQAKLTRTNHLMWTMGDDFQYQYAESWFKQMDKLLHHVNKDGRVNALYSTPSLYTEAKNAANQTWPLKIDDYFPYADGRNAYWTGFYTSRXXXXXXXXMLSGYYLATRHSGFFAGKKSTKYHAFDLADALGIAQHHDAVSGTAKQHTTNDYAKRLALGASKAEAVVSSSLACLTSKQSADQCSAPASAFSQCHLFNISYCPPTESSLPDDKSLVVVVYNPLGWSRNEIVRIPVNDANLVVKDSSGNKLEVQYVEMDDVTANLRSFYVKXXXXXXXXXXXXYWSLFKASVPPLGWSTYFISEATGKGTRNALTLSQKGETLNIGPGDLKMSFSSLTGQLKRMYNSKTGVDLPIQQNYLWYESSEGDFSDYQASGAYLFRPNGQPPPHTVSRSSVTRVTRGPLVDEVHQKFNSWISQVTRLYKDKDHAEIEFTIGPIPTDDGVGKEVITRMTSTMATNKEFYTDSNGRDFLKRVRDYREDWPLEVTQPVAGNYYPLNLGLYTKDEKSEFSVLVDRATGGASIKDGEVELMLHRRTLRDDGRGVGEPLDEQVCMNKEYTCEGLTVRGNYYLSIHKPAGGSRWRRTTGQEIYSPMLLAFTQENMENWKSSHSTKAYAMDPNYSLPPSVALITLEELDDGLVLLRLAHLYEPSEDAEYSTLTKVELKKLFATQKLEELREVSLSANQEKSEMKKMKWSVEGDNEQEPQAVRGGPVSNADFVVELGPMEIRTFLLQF

[8] = Inhibition of human liver Alpha-mannosidase
Sus scrofa = species: Sus scrofa; assay: Inhibition of porcine kidney Alpha alpha-trehalase using p-nitrophenyl glycoside as substrate assessed as release of p-nitrophenol at 1000 uM by spectrometric analysis relative to control

Chain of Alpha-galactosidase (Coffea arabica) (Q42656 16-378 limits assumed): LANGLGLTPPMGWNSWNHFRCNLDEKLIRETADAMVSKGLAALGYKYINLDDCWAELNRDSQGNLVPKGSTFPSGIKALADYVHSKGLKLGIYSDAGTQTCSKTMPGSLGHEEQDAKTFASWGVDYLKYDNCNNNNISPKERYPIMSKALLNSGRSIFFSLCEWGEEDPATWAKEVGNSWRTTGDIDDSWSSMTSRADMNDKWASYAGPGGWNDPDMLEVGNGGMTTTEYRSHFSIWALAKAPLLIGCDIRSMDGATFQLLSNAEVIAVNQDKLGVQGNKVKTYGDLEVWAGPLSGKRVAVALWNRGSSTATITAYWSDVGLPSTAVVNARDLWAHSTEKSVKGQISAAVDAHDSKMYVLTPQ

Row | Compound | inhibition (Oryza sativa) [%] | inhibition (Aspergillus niger) [%] | inhibition [1] [%] | inhibition (Prunus dulcis) [%] | inhibition (Bos taurus [2]) [%] | inhibition (Escherichia coli) [%] | inhibition (Rattus norvegicus) [%] | inhibition (Homo sapiens) [%] | inhibition (Helix pomatia) [%] | inhibition (Penicillium decumbens) [%] | inhibition [3] [%] | inhibition (Bos taurus [4]) [%] | inhibition [5] [%] | inhibition (Bos taurus [6]) [%] | inhibition [7] [%] | IC50 [8] [µM] | inhibition (Sus scrofa) [%] | Ki [8] [µM]
1 | O[C@@H]1[C@@H]2[C@@H](O)C[C@H](F)CN2C[C@@H]1O | 0 | 17.7 | 0 | 0 | 12.5 | 9.3 | 18.3 | 9.6 | 2.5 | 0.43 | 5.1 | 16 | 4.5 | 11.7 | 3.9 |  |  | 
2 | O[C@@H]1[C@H](O)C[S+]2CCCS[C@H]12 (stereo partly drawn) |  |  |  |  |  |  |  |  |  |  |  |  |  |  |  | 97 |  | 
3 | O[C@@H]1[C@@H]2[C@H](O)CCCN2C[C@@H]1O | 0 | 11.4 | 0 | 1 | 8.8 | 0 | 0 | 3.1 | 11.7 | 58 | 0 | 0 | 3.4 | 0 | 2.8 |  | 0 | 
4 | O[C@@H]1[C@@H]2[C@H](O)C[C@H](F)CN2C[C@@H]1O | 0 | 10.9 | 0 | 3.2 |  | 28.9 |  |  | 0 | 52 | 37.6 | 38.5 | 18 | 41.7 | 0 |  | 0.5 | 
5 | OC[C@H]1[C@@H](O)[C@@H](O)CN1Cc1ccc(I)cc1 |  |  |  |  |  |  |  |  |  |  |  |  |  |  |  | 0.09 |  | 
6 | O[C@@H]1[C@@H]2[C@H](O)C[C@@H](F)CN2C[C@@H]1O | 23.5 | 11.4 | 0 | 4.7 | 0.1 | 0 | 11.6 | 3.4 | 1.7 | 125 | 0 | 9 | 4.5 | 15 | 18.8 |  | 11.7 | 
7 | CC(=O)NCCCC[C@H]1C[C@@H](O)[C@@H]2[C@H](O)[C@H](O)CN2C1 |  |  |  |  |  |  |  |  |  |  |  |  |  |  |  | 51 |  | 
8 | O[C@H]1[C@H]2[C@@H](O)CCCN2C[C@H]1O | 0 | 1.8 | 0 | 3.2 | 5.7 | 0 | 0 | 0 | 0 | 47.5 | 0 | 4.5 | 0 | 0.8 | 51 | 51 | 0 | 
9 | OC[C@H]1[C@@H](O)[C@@H](O)CN1Cc1ccc(Br)cc1 |  |  |  |  |  |  |  |  |  |  |  |  |  |  |  | 0.09 |  | 
10 | Cc1ccc(C(=O)C[C@H]2CC[C@@H](O)[C@@H]3[C@H](O)[C@H](O)CN23)cc1 |  |  |  |  |  |  |  |  |  |  |  |  |  |  |  | 29 |  | 
11 | O[C@@H]1[C@@H]2[C@H](O)CC(F)(F)CN2C[C@@H]1O | 0 | 0.1 | 0 | 0 | 18.8 | 0 | 2.7 | 0.7 | 0 | 63 | 2.2 | 10.2 | 0 | 0.8 | 44.8 |  | 1.5 | 
12 | O[C@H]1[C@H]2[C@@H](O)CC(F)(F)CN2C[C@H]1O | 2.5 | 1.8 | 0 | 3.7 | 11.4 | 0 | 25 | 0 | 0.8 | 144 | 0.4 | 5.8 | 1.1 | 0 | 12.2 |  | 1.5 | 
13 | OC[C@@H]1[C@@H](O)[C@@H](O)[C@H]2[C@H](O)CCCN21 |  |  |  |  |  |  |  |  |  |  |  |  |  |  |  | 1.2 |  | 
14 | O[C@H]1[C@H]2[C@@H](O)C[C@H](F)CN2C[C@H]1O | 15.9 | 2.3 | 0 | 3.2 | 3.1 | 0 | 0 | 7.1 | 21.7 | 11.3 | 3 | 3.8 | 3.4 | 0 | 14.9 |  |  | 
15 | OC[C@@H](O)[C@H]1NC[C@@H](O)[C@H]1O |  |  |  |  |  |  |  |  |  |  |  |  |  |  |  | 3.9 |  | 
16 | NC[C@@H]1[C@@H](O)[C@@H](O)[C@H]2[C@H](O)CCCN21 |  |  |  |  |  |  |  |  |  |  |  |  |  |  |  |  |  | 0.097
17 | O[C@H]1[C@H]2[C@H](O)CCCN2C[C@H]1O [TRIDOLGOSIR] | 31.2 | 8.6 | 0 | 2.1 | 8.8 | 0 | 13.1 | 0 | 0 | 34.2 | 0 | 11.5 | 0 | 5.8 | 0.28 | 0.28 | 1 | 
18 | O[C@@H]1[C@@H]2[C@@H](O)CC(F)(F)CN2C[C@@H]1O | 0 | 10.9 | 0 | 10.5 | 14.1 | 0 | 0 | 0 | 0 | 2.2 | 0 | 38.5 | 0 |  | 28.2 |  | 28.4 | 
19 | O=C(OC[C@H](NC[C@H]1OC[C@H](O)[C@@H]1O)c1ccccc1)c1ccc(Br)cc1 |  |  |  |  |  |  |  |  |  |  |  |  |  |  |  | 89 |  | 
20 | OC[C@H]1[C@@H](O)[C@@H](O)CN1Cc1ccccc1 |  |  |  |  |  |  |  |  |  |  |  |  |  |  |  | 0.09 |  | 
21 | O[C@H]1[C@H]2[C@@H](O)C[C@@H](F)CN2C[C@H]1O | 14 | 1.4 | 0 | 5.3 | 15.1 | 4.1 | 10.9 | 17.3 | 3.3 | 118 | 5.3 | 19.9 | 6.2 | 29.2 | 14.4 |  | 4.6 | 
22 | O[C@@H]1[C@@H]2[C@@H](O)C[C@@H](F)CN2C[C@@H]1O | 27.3 | 2.3 | 0 | 0 |  | 9.3 | 47.3 | 43.5 | 1.7 | 5.2 | 15.6 | 25.6 | 6.2 | 21.7 | 1.6 |  | 36 | 
23 | OC[C@H](NC[C@H]1OC[C@H](O)[C@@H]1O)c1ccccc1 |  |  |  |  |  |  |  |  |  |  |  |  |  |  |  | 4.2 |  | 

Source: ChEMBL document CHEMBL6096649, “Enantiomeric C-6 fluorinated swainsonine derivatives as highly selective and potent inhibitors of α-mannosidase and α-l-rhamnosidase: Design, synthesis and structure-activity relationship study” (Eur J Med Chem, 2025)
